Test results published in BindingDB's records for doi:10.1016/j.ejmech.2009.07.027 (Trinity College, 2009).

Test: Induction of human SERT-dependent cytotoxicity in SERT expressing HEK293 cells after 48 hrs by neutral red assay

CCSc1ccc(CC(CC)NC)cc1 (stereo unspecified) [2-N-Methylamino-1-(4-ethylthiophenyl)butane]
EC50: > 100 µM
